Test results reported in paper PMC10957239 (Carbohydrate research, 2024).
pKd: −log10 of the molar value.

Molecular target: T1, rhDectin-2 (Homo sapiens, UniProt Q6EIG7)
T1 sequence (Q6EIG7 42-209 limits assumed): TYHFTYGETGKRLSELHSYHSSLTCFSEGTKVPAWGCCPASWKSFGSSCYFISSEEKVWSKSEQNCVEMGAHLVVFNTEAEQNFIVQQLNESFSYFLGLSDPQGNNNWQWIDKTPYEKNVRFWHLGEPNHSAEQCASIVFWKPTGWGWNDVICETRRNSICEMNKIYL
Assay: biolayer interferometry
Type: binding

Structure (SMILES): C=CCO[C@H]1O[C@H](CO)[C@@H](OP(=O)(O)O[C@H]2O[C@H](CO)[C@@H](O)[C@H](O)[C@@H]2O)[C@H](O)[C@@H]1O [compound 7, Allyl α-D-mannopyranoside α-D-mannopyranosyl-4-sodium phosphate]
- pKd: 4.87
